From a melting point compilation (Tetko et al.; mined from patent text by program, amines drawn as free bases though some values may be those of a salt)

SMILES | melting point
Nc1cc2c(cc1Oc1ccccc1)C(=O)CCO2 | 154 to 155 °C
CCCCOc1c(CNC(=O)OC(C)(C)C)n(CC(C)(C)C)c(=O)c2ccc(/C=C/C(=O)O)cc12 | 138 to 139 °C
CCn1c(=O)c(C(=O)O)nc2ccc(F)cc21 | 162 to 164 °C
CC(=O)NC(Cc1ccccc1)C(C)=O (stereo not given) | 96 to 97 °C
CC(=O)Nc1nc(CN2CCN(C(c3ccccc3)c3ccccc3)CC2)cs1 | 178 to 179 °C
Cc1c(C)c2c(c(C)c1N)CC(C)(C(=O)N1CCc3c([nH]c4ccccc34)C1)O2 (stereo not given) | 129 to 133 °C
O=[N+]([O-])c1ccc(Oc2ccc(S(=O)(=O)NC3CCCCC3)cc2)cc1 | 94 °C
N#CCC(CC#N)c1cccc(Cl)c1Cl | 76 to 78 °C
CC1(C)CN=C(NN=C(C=Cc2ccc(OC(F)(F)F)cc2)C=Cc2ccc(OC(F)(F)F)cc2)NC1 | 170 to 172 °C
COC(=O)NCc1c[nH]c(=S)n1[C@H]1CCc2c(F)cc(F)cc2C1 | 220 to 222 °C
CCCN(c1ncnc2c1ncn2C1OC(CO)C(O)C1O)n1cccc1 (stereo not given) | 136 to 138 °C
C=C(F)C(=O)Oc1c(Br)cc(C#N)cc1Br | 135 to 138 °C
COc1cc(OC)cc(-c2nnc(-c3cc(OC)cc(OC)c3)o2)c1 | 167 to 170 °C
CC(=O)Cc1ccccc1Br | 60 to 65 °C
CC(C)(C)c1cc(SC2CC(=O)N(CCCCCCN3C(=O)CC(Sc4cc(C(C)(C)C)c(O)c(C(C)(C)C)c4)C3=O)C2=O)cc(C(C)(C)C)c1O (stereo not given) | 69 to 72 °C
CNC(=S)NS(=O)(=O)c1cc(CCNC(=O)c2cc(Cl)ccc2OC)ccc1-c1cccs1 | 189 to 191 °C
C#C[C@]1(OC(C)=O)CC[C@H]2[C@@H]3CC(=C)C4=CC(=O)CC[C@@H]4[C@H]3CC[C@@]21C | 157 °C
Cc1ccccc1P(=NC(=O)OCc1cccnc1)(c1ccccc1)c1ccccc1 | 142 to 143 °C
CCOC(=O)c1c2n(c3c(F)c(Cl)ccc3c1=O)CCS2 | 216 °C
CN(C)c1ccc(C(=N)NC=Cc2ccc([N+](=O)[O-])cc2)cc1 | 191 to 193 °C
COCOc1cc(Cl)ccc1-c1cc(-c2cccc(C(=O)NCC3CCCCN3C(=O)OC(C)(C)C)c2)c(C#N)c(NC(=O)c2ccco2)n1 (stereo not given) | 133 to 136 °C
C=CCN1CCCN(c2cc(Cl)ccc2C)C1=S | 71 to 72 °C
CC1(O)C=CC2C3CCC4=CC(=O)CCC4C3C(c3ccc(-c4ccoc4)cc3)CC21C (stereo not given) | 179 °C
C#C[C@]1(C)CCc2c(C)c(OC)c(C)c(C)c2O1 | 94 to 97 °C
COc1cc(C=CC(=O)c2ccccc2N(C)C)cc(OC)c1 | 160 °C

SMILES | melting point
Clc1ccc(-c2nc(Sc3cccs3)[nH]c2-c2ccc(Cl)cc2)cc1 | 219 °C
O=C(Nc1ccc(Cl)c(C(F)(F)F)c1)C1C(=O)C2CCC(C2)C1=O (stereo not given) | 136 to 137 °C
CC1(C)CCc2c(N3CCOCC3)nc3sc4c(NCc5ccc(S(N)(=O)=O)cc5)ncnc4c3c2C1 | 258 to 260 °C
CC1(C)C(=O)NC(=O)c2cc3nc(-c4ccncc4)[nH]c3cc21 | 218 to 221 °C
Cc1ccc2c3c(ccc2n1)OC[C@H](CN1CCN(c2cccc(Cl)c2)CC1)O3 | 110 to 112 °C
O=C(O)CCC(=NO)c1ccc(-c2ccc(Cl)s2)cc1 | 172 to 174 °C
CN(C)c1c(C(N)=O)sc2cccc(Cl)c12 | 194 to 196 °C
N#Cc1cn(C2OC(CO)C(O)C2O)c2ncn(O)c(=O)c12 (stereo not given) | 229 to 231 °C
Sc1n[nH]c(-n2cccn2)n1 | 245 to 247 °C
COc1cc2c(cc1C(F)(F)F)N(C(=O)Nc1cncc(Br)c1)CC2 | 220 to 222 °C
NS(=O)(=O)c1ccc(-c2cnn(-c3ccc(F)c(F)c3)c(=O)c2Oc2ccc(F)cc2)cc1F | 224 to 226 °C
CC(C)Cn1c(=O)n(C)c(=O)c2c(S(=O)(=O)CCCC(=O)O)c(Cc3cccc4ccccc34)sc21 | 174 to 175 °C
COCCCOc1ccc(CCCOC(=O)NS(=O)(=O)NCCOC(C)C)c(Oc2ncc(C(F)(F)F)cc2Cl)c1 | 67.4 to 68 °C
Cc1ccc(C#N)c(OC(C)(C)C=O)c1 | 57 to 59 °C
O=C1CCC(O)(c2ccc(F)cc2)CC1 | 108 to 114 °C
Cn1ncc(N(CCCCl)Cc2ccccc2)c(Cl)c1=O | 92 to 93 °C
CCOC(=O)c1nc2ccc([N+](=O)[O-])cc2c(=O)[nH]1 | 227 to 228 °C
CC(CN1CCCC1)N1c2ccccc2Sc2ccc(C(=O)NC3CCCC3)cc21 (racemic) | 132 °C
CCOC(=O)N1CC(C)(C)CSC1=Nc1ccccc1C(C)C | 84 to 86 °C
Cc1nn2ccccc2c1C(=O)C1=CNCCC1 | 207 to 208 °C
O=C(NC1CCCCC1)NS(=O)(=O)c1ccc(CCn2cnc3ccccc3c2=O)cc1 | 228 to 230 °C
O=c1c2cn(Cc3ccccc3F)c3ccccc3c-2nn1-c1ccc(Cl)cc1 | 338 to 339 °C
O=C(Nc1ccc(C(=O)N2Cc3ccccc3Cc3ccccc32)cc1)c1ccc(C(F)(F)F)cc1 | 205 to 207 °C
Oc1cc(O)c(C23CC4CC(CC(C4)C2)C3)cc1C12CC3CC(CC(C3)C1)C2 | 146 °C
Cc1c2n(c3ccccc13)C(=O)C(=Cc1ncn(S(=O)(=O)N(C)C)c1C)CC2 | 200 to 205 °C

SMILES | melting point
Cc1oc(-c2ccc(OCC(F)(F)F)cc2)nc1COc1ccc(CN(O)C(N)=O)cc1 | 159 to 161 °C
CCOC(=O)c1nc(-c2cccc3ccccc23)no1 | 68 to 70 °C
CCNC(=O)[C@H]1CN(c2ccc3c(c2)sc(=O)n3C)C(=O)O1 | 224 to 226 °C
O=[N+]([O-])c1nccn1C(Br)CBr (stereo not given) | 102 to 106 °C
O=C(C=Cc1ccc(O)c(O)c1O)OCCc1ccccc1 | 144 °C
COc1cc(-c2ncn(-c3cc(OC)c(OC)c(OC)c3)c2-c2cc(OC)c(OC)c(OC)c2)cc(OC)c1OC | 169 to 171 °C
COc1ccc(C2OCc3ccccc3O2)cc1O (stereo not given) | 105 to 106 °C
CS(=O)(=O)c1cc(C(O)C2CCCCC2)c2ccccc2n1 (stereo not given) | 83 °C
CN(C)C(=O)C1(n2ccc(-c3ccccc3)n2)CC1 | 96 to 99 °C
Nc1nc2c([nH]c(=O)n2Cc2cccs2)c(=O)[nH]1 | > 300 °C
CCOC(=O)c1cn(C2CC2)c2c(OC(F)F)c(Br)ccc2c1=O | 253 °C
CCOC(=O)c1c(N)sc(-c2ccc(OC)cc2)c1C | 79 to 80 °C
CCOC(=O)CCC1CCN(c2ccc(C#N)c3ccccc23)CC1 | 106 to 107 °C
OC(CN1CCN(c2ccccn2)CC1)(Cn1cncn1)c1ccc(Cl)cc1Cl (stereo not given) | 116 to 118 °C
O=[N+]([O-])c1cn2c(n1)OC[C@@H](OCC#Cc1ccc(Br)cc1)C2 | 160 to 162 °C
Cc1c(I)c(=O)n(C2CCCC2)c2nc(Nc3ccc(N4CCNCC4)cn3)ncc12 | > 240 °C
C=Cc1ccc2nc(-c3ccccc3)c(-c3ccccc3)nc2c1 | 122 to 123 °C
O=C(O)c1ccc(Cl)nc1C(F)(F)F | 154 to 156 °C
COC(=O)c1ccc(NC(=O)CCc2cnoc2-c2ccccc2)cc1 | 111 to 112 °C
FC(F)(F)c1ccc(Cl)c(-c2cccn3nc(Cl)nc23)c1 | 156 to 158 °C
O=C(O)c1ccc(-c2ccc3nnn(Cc4ccc5ncccc5c4)c3n2)cc1F | 254 to 257 °C
CCOC(=O)C(=O)Nc1cccnc1 | 98 to 100 °C
N#CNC(=O)C12CC3CC(CC(C3)C1)C2 | 164 to 166 °C
CN1CCCc2cc(C=C3SC(=O)NC3=O)ccc21 | 254 to 257 °C
CON(C)C(=O)CN1CCC(CCN2CCN(c3cccc(C)c3C)CC2)CC1 | 66 °C

SMILES | melting point
C#CCn1cc(C=O)c([N+](=O)[O-])c1 | 120 °C
C=COCCN1CCC(Nc2nc3ccccc3n2Cc2ccc(F)cc2)CC1 | 138 °C
Cc1c(-c2c[nH]c3c(-c4ccccc4)cccc23)nc2ccc(F)cc2c1C(=O)O | 148 to 150 °C
COc1ccc(N2CCN(c3c(C)c(C)c4c(c3C)C(c3ccc(F)cc3)C(C)(C)O4)CC2)cc1 (stereo not given) | 139 to 141 °C
CC(C)c1nc(CN)n(C)c1Sc1cccc(Cl)c1 | 99 to 101 °C
Cc1noc(NS(=O)(=O)c2sccc2-c2ccccc2)c1Br | 105 to 107 °C
Fc1cc(F)c2[nH]c(-c3ccccc3)c(CCN3CCCCC3)c2c1 | 185 to 187 °C
CC(=O)N1C(C(=O)NCCO[N+](=O)[O-])CSC1c1ccccc1C(=O)O (stereo not given) | 148 to 150 °C
CCOC(=O)c1cc2c(OCC3CO3)cccc2[nH]1 (stereo not given) | 142 to 144 °C
COC(=O)c1ccc(C(=O)CC(=O)c2ccc3c(c2)C(C)(C)CCC3(C)C)cc1 | 128 °C
CCOC(=O)C(=O)Nc1ncc(C)s1 | 166 to 168 °C
CN(CC(C)(C)NCc1c(CO)ccc(OCc2ccccc2)c1CO)c1ccccc1 | 93 to 98 °C
COCCOc1ccc(/C=C/C(=O)NS(=O)(=O)CC(F)(F)F)c(Oc2ncc(C(F)(F)F)cc2Cl)c1 | 146 to 148 °C
CCOC(=O)C1=C(C)NN=C(C(=O)OC)C1c1cccc([N+](=O)[O-])c1 (stereo not given) | 176 °C
NC(=O)CN(c1ccc(Cl)cc1C(O)c1ccccc1Cl)S(=O)(=O)c1ccc(Cl)c(Cl)c1 (stereo not given) | 135 °C
Cc1cccc2c1C(=O)NS2(=O)=O | 224 to 226 °C
CC1Sc2nc(SCc3ccccc3)nn2C1=O (stereo not given) | 85 to 87 °C
Cc1cc(C=Cc2ccccc2O)on1 | 236 to 238 °C
CC1=C(C(=O)OC(C)C)C(c2cccc([N+](=O)[O-])c2)C(C(=O)O)=NN1 (stereo not given) | 195 °C
O=C(O)c1ccnc(-c2cccc3oc(Cc4cccc(C(F)(F)F)c4)cc23)c1 | 187 to 188 °C
CS(=O)(=O)c1c(N)nc(N)nc1Cl | 256 to 258 °C
COc1cccc(CN(C)CC(CCN2CCC(NC(C)=O)(c3ccccc3)CC2)c2ccc(Cl)c(Cl)c2)c1 (stereo not given) | 59 to 61 °C
Cc1ccc(-c2ccccc2-c2nnn[nH]2)cc1 | 148 to 150 °C
CCCCNC(=O)N(C)c1cccc(-c2ccc(C=C(OC)C(=O)O)cc2)c1 | 146 °C
CCCc1c(O)ccc2c1OC(C)(CCC(=O)OC)CC2=O (stereo not given) | 102 °C
